This is an account of results in US20240246908A1 (ORION CORPORATION, priority 2021, published 2024).

In general, pIC50 refers to −log10 of the IC50, conventionally taken in molar units.

Structures are written as SMILES. pIC50: −log10 of the molar value.

This assay deals with YAP-TEAD. The experiment in a line: TEAD inhibition, Hippo Pathway TEAD Reporter MCF-7 luciferase assay. In kind it is cell-based. The conditions noted are these: Homo sapiens, MCF7, 24 h, Hippo Pathway TEAD Reporter MCF-7 cells, luciferase activity after 24 h; read-out: IC50 of the test compounds on YAP-TEAD inhibition (Group). How it is done: TEAD inhibition was assayed using Hippo Pathway TEAD Reporter—MCF-7 cell line (BPS Bioscience, Catalog #: 60618) which contains firefly luciferase gene under the control of TEAD responsive elements. In the cell line, YAP1 remains in the nucleus inducing constitutive expression of luciferase reporter. Amount of expressed luciferase was detected using ONE-Glo Luciferase Assay System (Promega) and measuring plates with Enspire Multimode Plate Reader (PerkinElmer).
Hippo Pathway TEAD Reporter—MCF-7 cells were plated on white/clear Poly-D-Lysine coated 384 plates (Corning #356660) at the density of 8500 cells/well. Next day test compounds (11 concentrations with 4 replicates) and DMSO control (0.1%) were added to the plate. After 24 h cells were lysed and luciferase activity was measured. The half maximal inhibitory concentration (IC50) of the test compounds on YAP-TEAD inhibition was determined.
Regarding `CN1C(=O)CCC1C(=O)Nc1cc(Oc2cccc(C(F)(F)F)c2)cc2c1OCO2` (stereo not shown) [Compound 34, 1-Methyl-5-oxo-N-(6-(3-(trifluoromethyl)phenoxy)benzo[d][1,3]dioxol-4-yl)-pyrrolidine-2-carboxamide], the pIC50 is 6.52 to 7.30. For the molecule `COc1c(F)cc(COc2cccc(F)c2)cc1NC(=O)C1CCC(=O)N1C` (stereo not shown) [Compound 35, N-(3-Fluoro-5-((3-fluorophenoxy)methyl)-2-methoxyphenyl)-1-methyl-5-oxo-pyrrolidine-2-carboxamide], the negative logarithm of the IC50 (pIC50) was 5.70 to 6.52.

As to `COc1c(F)cc(COc2cccc(F)c2)cc1NC(=O)C1CCC(=O)N1` (stereo not shown) [Compound 36, N-(3-Fluoro-5-((3-fluorophenoxy)methyl)-2-methoxyphenyl)-5-oxopyrrolidine-2-carboxamide], the pIC50 is 6.52 to 7.30. The figure for `CCN1C(=O)CCC1C(=O)Nc1cc(Oc2cccc(C(F)(F)F)c2)ccc1OC` (stereo not shown) [Compound 37, 1-Ethyl-N-(2-methoxy-5-(3-(trifluoromethyl)phenoxy)phenyl)-5-oxopyrrolidine-2-carboxamide] is 6.52 to 7.30; for `COc1ccc(Oc2cccc(C(F)(F)F)c2)cc1NC(=O)C1CCC(=O)N1C(=O)C1CC1` (stereo not shown) [Compound 38, 1-(Cyclopropanecarbonyl)-N-(2-methoxy-5-(3-(trifluoromethyl)phenoxy)-phenyl)-5-oxopyrrolidine-2-carboxamide] it is 5.70 to 6.52.

Regarding `COc1cc(F)c(Oc2cccc(C(F)(F)F)c2)cc1NC(=O)C1CCC(=O)N1C(C)=O` (stereo not shown) [Compound 39, 1-Acetyl-N-(4-fluoro-2-methoxy-5-(3-(trifluoromethyl)phenoxy)phenyl)-5-oxopyrrolidine-2-carboxamide], the pIC50 is 6.52 to 7.30. Then `CC(=O)N1C(=O)CCC1C(=O)Nc1cc(Oc2cccc(C(F)(F)F)c2)ccc1F` (stereo not shown) [Compound 40, 1-Acetyl-N-(2-fluoro-5-(3-(trifluoromethyl)phenoxy)phenyl)-5-oxopyrrolidine-2-carboxamide], with 5.70 to 6.52; and `CN1C(=O)CCC1C(=O)Nc1cc(Oc2cccc(C(F)(F)F)c2)ccc1F` (stereo not shown) [Compound 41, N-(2-Fluoro-5-(3-(trifluoromethyl)phenoxy)phenyl)-1-methyl-5-oxopyrrolidine-2-carboxamide], with 5.70 to 6.52; and `COc1ccc(Oc2ccc(F)cc2F)cc1NC(=O)C1CCC(=O)N1` (stereo not shown) [Compound 42, N-(5-(2,4-Difluorophenoxy)-2-methoxyphenyl)-5-oxopyrrolidine-2-carboxamide], with 6.52 to 7.30. The figure for `COc1ccc(Oc2ccc(F)cc2F)cc1NC(=O)C1CCC(=O)N1C` (stereo not shown) [Compound 43, N-(5-(2,4-Difluorophenoxy)-2-methoxyphenyl)-1-methyl-5-oxopyrrolidine-2-carboxamide] is 6.52 to 7.30; for `COc1ccc(Oc2ccc(F)cc2F)cc1NC(=O)C1CCC(=O)N1C(C)=O` (stereo not shown) [Compound 44, 1-Acetyl-N-(5-(2,4-difluorophenoxy)-2-methoxyphenyl)-5-oxopyrrolidine-2-carboxamide] it is 5.70 to 6.52. Then `COc1ccc(Oc2ccc(C(F)(F)F)cc2)cc1NC(=O)C1CCC(=O)N1C(C)=O` (stereo not shown) [Compound 47, 1-Acetyl-N-(2-methoxy-5-(4-(trifluoromethyl)phenoxy)phenyl)-5-oxo-pyrrolidine-2-carboxamide], with above 7.30; and `COc1ccc(Oc2ccc(C(F)(F)F)cc2)cc1NC(=O)C1CCC(=O)N1C` (stereo not shown) [Compound 48, N-(2-Methoxy-5-(4-(trifluoromethyl)phenoxy)phenyl)-1-methyl-5-oxopyrrolidi-ne-2-carboxamide], with above 7.30. As to `COc1ccc(COc2cccc(C(F)(F)F)c2)cc1NC(=O)C1CCC(=O)N1` (stereo not shown) [Compound 49, N-(2-Methoxy-5-((3-(trifluoromethyl)phenoxy)methyl)phenyl)-5-oxopyrrolidine-2-carboxamide], the pIC50 is 6.52 to 7.30. Then `COc1ccc(COc2cccc(C(F)(F)F)c2)cc1NC(=O)C1CCC(=O)N1C(C)=O` (stereo not shown) [Compound 50, 1-Acetyl-N-(2-methoxy-5-((3-(trifluoromethyl)phenoxy)methyl)phenyl)-5-oxopyrrolidine-2-carboxamide], with 5.70 to 6.52; and `COc1ccc(OCc2cccc(C(F)(F)F)c2)cc1NC(=O)C1CCC(=O)N1C(C)=O` (stereo not shown) [Compound 51, 1-Acetyl-N-(2-methoxy-5-((3-(trifluoromethyl)benzyl)oxy)phenyl)-5-oxo-pyrrolidine-2-carboxamide], with 5.70 to 6.52.

Turning to `COc1ccc(OCc2cccc(C(F)(F)F)c2)cc1NC(=O)C1CCC(=O)N1` (stereo not shown) [Compound 52, N-(2-Methoxy-5-((3-(trifluoromethyl)benzyl)oxy)phenyl)-5-oxopyrrolidine-2-carboxamide], the pIC50 is 6.52 to 7.30. The figure for `COc1ccc(OCc2cccc(C(F)(F)F)c2)cc1NC(=O)C1CCC(=O)N1C` (stereo not shown) [Compound 53, N-(2-Methoxy-5-((3-(trifluoromethyl)benzyl)oxy)phenyl)-1-methyl-5-oxo-pyrrolidine-2-carboxamide] is 6.52 to 7.30. Then `O=C(Nc1cc(Oc2cccc(C(F)(F)F)c2)cc2c1OCCO2)C1CCS(=O)(=O)N1` (stereo not shown) [Compound 54, N-(7-(3-(Trifluoromethyl)phenoxy)-2,3-dihydrobenzo[b][1,4]dioxin-5-yl)-isothiazolidine-3-carboxamide 1,1-dioxide], with 5.70 to 6.52.

On to `O=C1CCC(C(=O)Nc2cc(Oc3cccc(C(F)(F)F)c3)cc3c2OCCO3)N1` (stereo not shown) [Compound 55, 5-Oxo-N-(7-(3-(trifluoromethyl)phenoxy)-2,3-dihydrobenzo[b][1,4]dioxin-5-yl)pyrrolidine-2-carboxamide], for which the pIC50 is 6.52 to 7.30. As to `CC(=O)N1C(=O)CCC1C(=O)Nc1cc(Oc2cccc(C(F)(F)F)c2)cc2c1OCCO2` (stereo not shown) [Compound 56, 1-Acetyl-5-oxo-N-(7-(3-(trifluoromethyl)phenoxy)-2,3-dihydrobenzo[b][1,4]-dioxin-5-yl)pyrrolidine-2-carboxamide], the pIC50 is 6.52 to 7.30. The figure for `O=C1CCC(C(=O)Nc2cc(COc3cccc(F)c3)cc3c2OCCO3)N1` (stereo not shown) [Compound 57, N-(7-((3-Fluorophenoxy)methyl)-2,3-dihydrobenzo[b][1,4]dioxin-5-yl)-5-oxopyrrolidine-2-carboxamide] is 6.52 to 7.30; for `CN1C(=O)CCC1C(=O)Nc1cc(COc2cccc(F)c2)cc2c1OCCO2` (stereo not shown) [Compound 58, N-(7-((3-Fluorophenoxy)methyl)-2,3-dihydrobenzo[b][1,4]dioxin-5-yl)-1-methyl-5-oxopyrrolidine-2-carboxamide] it is 5.70 to 6.52; for `COc1ccc(Oc2ccc(F)c(F)c2)cc1NC(=O)C1CCC(=O)N1` (stereo not shown) [Compound 59, N-(5-(3,4-Difluorophenoxy)-2-methoxyphenyl)-5-oxopyrrolidine-2-carboxamide] it is above 7.30. The figure for `COc1ccc(Oc2ccc(F)c(F)c2)cc1NC(=O)C1CCC(=O)N1C` (stereo not shown) [Compound 60, N-(5-(3,4-Difluorophenoxy)-2-methoxyphenyl)-1-methyl-5-oxopyrrolidine-2-carboxamide] is 6.52 to 7.30; for `Cc1c(Oc2cccc(C(F)(F)F)c2)cc(NC(=O)C2CCC(=O)N2)c2c1OCCO2` (stereo not shown) [Compound 61, N-(8-Methyl-7-(3-(trifluoromethyl)phenoxy)-2,3-dihydrobenzo[b][1,4]dioxin-5-yl)-5-oxopyrrolidine-2-carboxamide] it is 5.70 to 6.52.

In the case of `COc1ccc(Oc2ccc(C(F)(F)F)nc2)cc1NC(=O)C1CCC(=O)N1` (stereo not shown) [Compound 62, N-(2-Methoxy-5-((6-(trifluoromethyl)pyridin-3-yl)oxy)phenyl)-5-oxopyrrolidine-2-carboxamide], the negative logarithm of the IC50 (pIC50) was 6.52 to 7.30. Then `COc1ccc(Oc2ccc(C(F)(F)F)nc2)cc1NC(=O)C1CCC(=O)N1C` (stereo not shown) [Compound 63, N-(2-Methoxy-5-((6-(trifluoromethyl)pyridin-3-yl)oxy)phenyl)-1-methyl-5-oxopyrrolidine-2-carboxamide], with 6.52 to 7.30; and `COc1ccc(/C=C/C2CCOCC2)cc1NC(=O)C1CCC(=O)N1C` (stereo not shown) [Compound 64, (E)-N-(2-Methoxy-5-(2-(tetrahydro-2H-pyran-4-yl)vinyl)phenyl)-1-methyl-5-oxopyrrolidine-2-carboxamide], with 5.70 to 6.52.

On to `COc1ccc(/C=C/C2CCOCC2)cc1NC(=O)C1CCC(=O)N1` (stereo not shown) [Compound 65, (E)-N-(2-Methoxy-5-(2-(tetrahydro-2H-pyran-4-yl)vinyl)phenyl)-5-oxo-pyrrolidine-2-carboxamide], for which the pIC50 is 5.70 to 6.52.

Take `O=C1CCC(C(=O)Nc2cc(Oc3ccc(C(F)(F)F)cc3)cc3c2OCCO3)N1` (stereo not shown) [Compound 66, 5-Oxo-N-(7-(4-(trifluoromethyl)phenoxy)-2,3-dihydrobenzo[b][1,4]dioxin-5-yl)pyrrolidine-2-carboxamide]: the pIC50 was above 7.30. The figure for `CN1C(=O)CCC1C(=O)Nc1cc(Oc2ccc(C(F)(F)F)cc2)cc2c1OCCO2` (stereo not shown) [Compound 67, 1-Methyl-5-oxo-N-(7-(4-(trifluoromethyl)phenoxy)-2,3-dihydrobenzo[b][1,4]-dioxin-5-yl)pyrrolidine-2-carboxamide] is above 7.30; for `CCN1C(=O)CCC1C(=O)Nc1cc(Oc2ccc(C(F)(F)F)cc2)ccc1OC` (stereo not shown) [Compound 68, 1-Ethyl-N-(2-methoxy-5-(4-(trifluoromethyl)phenoxy)phenyl)-5-oxopyrrolidine-2-carboxamide] it is above 7.30. The figure for `COc1ccc(Oc2ccc(C(F)(F)F)cc2)cc1NC(=O)[C@H]1CCC(=O)N1C` [Compound 69, (R)—N-(2-Methoxy-5-(4-(trifluoromethyl)phenoxy)phenyl)-1-methyl-5-oxo-pyrrolidine-2-carboxamide] is above 7.30.
